According to PubChem BioAssay (NCI):
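Interpolation was linear, between the two tested concentrations surrounding the appropriate level; five concentrations were tested over 48 hours in 96-well plates. Abbreviation: GI50, concentration required for 50% inhibition of growth. TGI is the concentration that stops growth completely.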

Key:
Experiment in all cases: DTP human tumour cell line panel, 48 h
SR leukemia = tested on: SR leukemia
786-0 renal = tested on: 786-0 renal
HOP-92 NSCLC = tested on: HOP-92 NSCLC
HS 578T breast = tested on: HS 578T breast
CCRF-CEM leukemia = tested on: CCRF-CEM leukemia
T-47D breast = tested on: T-47D breast
OVCAR-5 ovarian = tested on: OVCAR-5 ovarian
SW-620 colon = tested on: SW-620 colon
SK-MEL-5 melanoma = tested on: SK-MEL-5 melanoma
MDA-MB-231 breast = tested on: MDA-MB-231 breast
COLO 205 colon = tested on: COLO 205 colon
UACC-62 melanoma = tested on: UACC-62 melanoma
SN12C renal = tested on: SN12C renal
NCI-H226 lung = tested on: NCI-H226 lung
RXF 393 renal = tested on: RXF 393 renal
HT29 colon = tested on: HT29 colon
SK-MEL-28 melanoma = tested on: SK-MEL-28 melanoma
SF-539 CNS = tested on: SF-539 CNS
SNB-75 CNS = tested on: SNB-75 CNS
UACC-257 melanoma = tested on: UACC-257 melanoma
OVCAR-4 ovarian = tested on: OVCAR-4 ovarian
OVCAR-3 ovarian = tested on: OVCAR-3 ovarian
SF-268 CNS = tested on: SF-268 CNS
SK-MEL-2 melanoma = tested on: SK-MEL-2 melanoma
BT-549 breast = tested on: BT-549 breast
KM12 colon = tested on: KM12 colon
K-562 leukemia = tested on: K-562 leukemia
DU-145 prostate = tested on: DU-145 prostate
OVCAR-8 ovarian = tested on: OVCAR-8 ovarian
MDA-MB-435 = tested on: MDA-MB-435
SF-295 CNS = tested on: SF-295 CNS
ACHN renal = tested on: ACHN renal
TK-10 renal = tested on: TK-10 renal
NCI/ADR-RES ovarian = tested on: NCI/ADR-RES ovarian
A549 NSCLC = tested on: A549 NSCLC
SNB-19 CNS = tested on: SNB-19 CNS
EKVX NSCLC = tested on: EKVX NSCLC
U251 CNS = tested on: U251 CNS
MALME-3M melanoma = tested on: MALME-3M melanoma
PC-3 prostate = tested on: PC-3 prostate
NCI-H460 lung = tested on: NCI-H460 lung
HCT-116 colon = tested on: HCT-116 colon
LOX IMVI melanoma = tested on: LOX IMVI melanoma
NCI-H522 lung = tested on: NCI-H522 lung
CAKI-1 renal = tested on: CAKI-1 renal
HL-60(TB) leukemia = tested on: HL-60(TB) leukemia
UO-31 renal = tested on: UO-31 renal
M14 melanoma = tested on: M14 melanoma
HOP-62 NSCLC = tested on: HOP-62 NSCLC
NCI-H23 lung = tested on: NCI-H23 lung
HCC-2998 colon = tested on: HCC-2998 colon
RPMI-8226 leukemia = tested on: RPMI-8226 leukemia
HCT-15 colon = tested on: HCT-15 colon
SK-OV-3 ovarian = tested on: SK-OV-3 ovarian
MOLT-4 leukemia = tested on: MOLT-4 leukemia
MCF7 breast = tested on: MCF7 breast
A498 renal = tested on: A498 renal
IGROV1 ovarian = tested on: IGROV1 ovarian
MDA-N = tested on: MDA-N

Work on `Cc1ccc(C(=Nc2ccccc2)N=P(c2ccccc2)(c2ccccc2)c2ccccc2)cc1` yielded a GI50 (SR leukemia) of 1.67 µM, a TGI (SR leukemia) of 14.9 µM and a GI50 (786-0 renal) of 1.71 µM. It also gave a TGI (786-0 renal) of 4.29 µM, a TGI (HOP-92 NSCLC) of 1.4 µM and a GI50 (HS 578T breast) of 1.48 µM. The TGI (HS 578T breast) was 7.84 µM, the GI50 (CCRF-CEM leukemia) was 2.51 µM and the TGI (CCRF-CEM leukemia) was 6.5 µM. The GI50 (T-47D breast) was 1.24 µM, the GI50 (OVCAR-5 ovarian) was 2.98 µM and the GI50 (SW-620 colon) was 1.26 µM. The GI50 (SK-MEL-5 melanoma) was 0.739 µM, the TGI (SK-MEL-5 melanoma) was 1.93 µM and the GI50 (MDA-MB-231 breast) was 2.21 µM. For the same compound, the TGI (MDA-MB-231 breast) was 7.75 µM, the GI50 (COLO 205 colon) was 0.833 µM and the TGI (COLO 205 colon) was 2.32 µM. For the same compound, the GI50 (UACC-62 melanoma) was 1.19 µM, the TGI (UACC-62 melanoma) was 5.07 µM and the GI50 (SN12C renal) was 1.41 µM. It also gave a TGI (SN12C renal) of 9 µM, a GI50 (NCI-H226 lung) of 1.57 µM and a TGI (NCI-H226 lung) of 9.38 µM. It also gave a GI50 (RXF 393 renal) of 0.695 µM, a TGI (RXF 393 renal) of 2.52 µM and a GI50 (HT29 colon) of 1.15 µM. The TGI (HT29 colon) was greater than 36.8 µM, the GI50 (SK-MEL-28 melanoma) was 1.63 µM and the TGI (SK-MEL-28 melanoma) was 10 µM. For the same compound, the GI50 (SF-539 CNS) was 2.18 µM, the TGI (SF-539 CNS) was 8.68 µM and the GI50 (SNB-75 CNS) was 2.44 µM. For the same compound, the TGI (SNB-75 CNS) was 14.8 µM, the GI50 (UACC-257 melanoma) was 1.32 µM and the TGI (UACC-257 melanoma) was 3.74 µM. For the same compound, the GI50 (OVCAR-4 ovarian) was 1.53 µM, the TGI (OVCAR-4 ovarian) was greater than 31 µM and the GI50 (OVCAR-3 ovarian) was 1.12 µM. For the same compound, the GI50 (SF-268 CNS) was 1.79 µM, the GI50 (SK-MEL-2 melanoma) was 1.31 µM and the TGI (SK-MEL-2 melanoma) was 5.44 µM. It also gave a GI50 (BT-549 breast) of 1.54 µM, a TGI (BT-549 breast) of 3.96 µM and a GI50 (KM12 colon) of 1.07 µM. For the same compound, the TGI (KM12 colon) was 4.71 µM, the GI50 (K-562 leukemia) was 4.22 µM and the TGI (K-562 leukemia) was greater than 100 µM. The GI50 (DU-145 prostate) was 2.09 µM, the GI50 (OVCAR-8 ovarian) was 3.34 µM and the TGI (OVCAR-8 ovarian) was greater than 100 µM. The GI50 (MDA-MB-435) was 0.955 µM, the TGI (MDA-MB-435) was 3.23 µM and the GI50 (SF-295 CNS) was 0.875 µM. It also gave a TGI (SF-295 CNS) of 7.12 µM, a GI50 (ACHN renal) of 1.34 µM and a GI50 (TK-10 renal) of 1.18 µM. For the same compound, the TGI (TK-10 renal) was 4.14 µM, the GI50 (NCI/ADR-RES ovarian) was 3.61 µM and the GI50 (A549 NSCLC) was 1.43 µM. The TGI (A549 NSCLC) was 15 µM, the GI50 (SNB-19 CNS) was 2.12 µM and the GI50 (EKVX NSCLC) was 1.44 µM. It also gave a GI50 (U251 CNS) of 1.15 µM, a GI50 (MALME-3M melanoma) of 0.288 µM and a TGI (MALME-3M melanoma) of 0.946 µM. The GI50 (PC-3 prostate) was 1.74 µM, the TGI (PC-3 prostate) was 4.04 µM and the GI50 (NCI-H460 lung) was 1.22 µM. The TGI (NCI-H460 lung) was 4.23 µM, the GI50 (HCT-116 colon) was 0.986 µM and the TGI (HCT-116 colon) was 3.92 µM. It also gave a GI50 (LOX IMVI melanoma) of 0.949 µM, a TGI (LOX IMVI melanoma) of 4.28 µM and a GI50 (NCI-H522 lung) of 1.44 µM. The TGI (NCI-H522 lung) was 9.73 µM, the GI50 (CAKI-1 renal) was 1.82 µM and the GI50 (HL-60(TB) leukemia) was 0.235 µM. For the same compound, the TGI (HL-60(TB) leukemia) was 0.593 µM, the GI50 (UO-31 renal) was 1.32 µM and the TGI (UO-31 renal) was 3.8 µM. The GI50 (M14 melanoma) was 1.81 µM, the TGI (M14 melanoma) was 8.77 µM and the GI50 (HOP-62 NSCLC) was 2.14 µM. It also gave a GI50 (NCI-H23 lung) of 3.11 µM, a TGI (NCI-H23 lung) of 12.5 µM and a GI50 (HCC-2998 colon) of 1.22 µM. For the same compound, the TGI (HCC-2998 colon) was 3.72 µM, the GI50 (RPMI-8226 leukemia) was 1.18 µM and the TGI (RPMI-8226 leukemia) was 2.86 µM. For the same compound, the GI50 (HCT-15 colon) was 1.22 µM, the GI50 (SK-OV-3 ovarian) was 1.98 µM and the TGI (SK-OV-3 ovarian) was 5.22 µM. The GI50 (MOLT-4 leukemia) was 0.328 µM, the TGI (MOLT-4 leukemia) was 1.29 µM and the GI50 (MCF7 breast) was 1.43 µM. The TGI (MCF7 breast) was 4.85 µM, the GI50 (A498 renal) was 1.72 µM and the TGI (A498 renal) was 5.32 µM. The GI50 (IGROV1 ovarian) was 0.621 µM and the TGI (IGROV1 ovarian) was 4.96 µM.
Compound `CN(C)CCOc1ccc2[nH]c(C(=O)N3CC(CCl)c4c3cc(NC(=O)OCc3ccc([N+](=O)[O-])cc3)c3ccccc43)cc2c1` (stereo unspecified) has a TGI (786-0 renal) of 2.09 µM, a TGI (OVCAR-5 ovarian) of 2.95 µM and a TGI (SW-620 colon) of 2.61 µM. For the same compound, the TGI (SK-MEL-5 melanoma) was 2.76 µM, the TGI (MDA-MB-231 breast) was 3.23 µM and the TGI (COLO 205 colon) was 3.29 µM. It also gave a TGI (UACC-62 melanoma) of 5.36 µM, a TGI (MDA-N) of 2.86 µM and a TGI (SN12C renal) of 2.95 µM. The TGI (NCI-H226 lung) was 3.72 µM, the TGI (SK-MEL-28 melanoma) was 3.06 µM and the TGI (SF-539 CNS) was 2.99 µM. The TGI (UACC-257 melanoma) was greater than 100 µM, the TGI (DU-145 prostate) was 1.9 µM and the TGI (TK-10 renal) was greater than 100 µM. It also gave a TGI (A549 NSCLC) of 2.52 µM, a TGI (EKVX NSCLC) of 3.14 µM and a TGI (U251 CNS) greater than 100 µM. The TGI (MALME-3M melanoma) was 2.86 µM, the TGI (NCI-H460 lung) was greater than 100 µM and the TGI (HCT-116 colon) was 2.17 µM. For the same compound, the TGI (UO-31 renal) was 2.56 µM, the TGI (M14 melanoma) was 2.88 µM and the TGI (HCC-2998 colon) was greater than 100 µM. It also gave a TGI (HCT-15 colon) of 3.58 µM.
